Measured values published in the supplement of paper PMC10307832.

Assays:
[1] = compound: CN1CCN(CC1)C2=CC(=C(C=C2)NC3=NC=C4C(=N3)N(C5=CC=CC=C5C(=O)N4C)C)OC [XMD8-85]; experiment: relative viability (nuclei count vs DMSO), 5 days (fraction); higher = more cells survive
Method in brief: (§1)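 A plate was accepted only when its control CV was below 25% and the cells had doubled at least once. Viability is defined from nuclear counts as treated wells divided by vehicle wells, with the median taken across plates. That median covers lung cancer cell lines grown in 1536-well plates, dosed by pinning at five √10-spaced library-drug concentrations, and counted in MetaXpress from 4× Hoechst images after 5 days.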

[2] = compound: O=C(O)C(Cc1ccccc1[N+](=O)[O-])=NNc1nc(-c2ccc(Cl)c(Cl)c2)cs1 (mixture of isomers) [4EGI-1]; experiment: as above
Method in brief: as §1

PC-14
relative viability ([1]; 0.08 µM): 0.996
relative viability ([1]; 0.253 µM): 0.906
relative viability ([1]; 0.8 µM): 0.984
relative viability ([1]; 2.53 µM): 1.03
relative viability ([1]; 8 µM): 0.587
relative viability ([2]; 0.5 µM): 1.01
relative viability ([2]; 5 µM): 1.05
relative viability ([2]; 15.81 µM): 0.341
relative viability ([2]; 50 µM): 0.395

NCI-H520
relative viability ([1]; 0.08 µM): 0.99
relative viability ([1]; 0.253 µM): 0.975
relative viability ([1]; 0.8 µM): 1.03
relative viability ([1]; 2.53 µM): 1.04
relative viability ([1]; 8 µM): 0.813
relative viability ([2]; 0.5 µM): 1.24
relative viability ([2]; 1.581 µM): 0.952
relative viability ([2]; 5 µM): 1.16
relative viability ([2]; 15.81 µM): 0.917
relative viability ([2]; 50 µM): 0.64

NCI-H2342
relative viability ([1]; 0.08 µM): 0.873
relative viability ([1]; 0.253 µM): 1.07
relative viability ([1]; 0.8 µM): 1.02
relative viability ([1]; 2.53 µM): 1.02
relative viability ([1]; 8 µM): 1.06
relative viability ([2]; 0.5 µM): 1.13
relative viability ([2]; 1.581 µM): 0.889
relative viability ([2]; 5 µM): 0.989
relative viability ([2]; 15.81 µM): 1.03
relative viability ([2]; 50 µM): 0.869

NCI-H3122
relative viability ([1]; 0.08 µM): 1.09
relative viability ([1]; 0.253 µM): 0.965
relative viability ([1]; 0.8 µM): 1.08
relative viability ([1]; 2.53 µM): 0.972
relative viability ([1]; 8 µM): 0.967
relative viability ([2]; 0.5 µM): 0.987
relative viability ([2]; 1.581 µM): 0.918
relative viability ([2]; 5 µM): 0.969
relative viability ([2]; 15.81 µM): 0.964
relative viability ([2]; 50 µM): 0.683

HCC-78
relative viability ([1]; 0.08 µM): 1.14
relative viability ([1]; 0.253 µM): 1.02
relative viability ([1]; 0.8 µM): 0.848
relative viability ([1]; 2.53 µM): 0.92
relative viability ([1]; 8 µM): 0.512
relative viability ([2]; 0.5 µM): 1.09
relative viability ([2]; 1.581 µM): 0.739
relative viability ([2]; 5 µM): 0.994
relative viability ([2]; 15.81 µM): 0.884
relative viability ([2]; 50 µM): 0.872

SW 1573
relative viability ([1]; 0.08 µM): 1.02
relative viability ([1]; 0.253 µM): 1.1
relative viability ([1]; 0.8 µM): 1.08
relative viability ([1]; 2.53 µM): 0.982
relative viability ([2]; 0.5 µM): 1.24
relative viability ([2]; 1.581 µM): 0.862
relative viability ([2]; 5 µM): 1.03
relative viability ([2]; 15.81 µM): 0.673
relative viability ([2]; 50 µM): 0.445

RERF-LC-KJ
relative viability ([1]; 0.08 µM): 0.992
relative viability ([1]; 0.253 µM): 0.939
relative viability ([1]; 0.8 µM): 1.07
relative viability ([1]; 2.53 µM): 1.13
relative viability ([1]; 8 µM): 0.82
relative viability ([2]; 0.5 µM): 1.1
relative viability ([2]; 1.581 µM): 0.629
relative viability ([2]; 5 µM): 0.936
relative viability ([2]; 15.81 µM): 0.805
relative viability ([2]; 50 µM): 0.637

SK-MES-1
relative viability ([1]; 0.08 µM): 1.03
relative viability ([1]; 0.253 µM): 1.03
relative viability ([1]; 0.8 µM): 0.938
relative viability ([1]; 2.53 µM): 0.951
relative viability ([1]; 8 µM): 0.556
relative viability ([2]; 0.5 µM): 1.09
relative viability ([2]; 1.581 µM): 0.944
relative viability ([2]; 5 µM): 0.983
relative viability ([2]; 15.81 µM): 0.759
relative viability ([2]; 50 µM): 0.691

NCI-H1993
relative viability ([1]; 0.08 µM): 0.861
relative viability ([1]; 0.253 µM): 0.965
relative viability ([1]; 0.8 µM): 1.01
relative viability ([1]; 2.53 µM): 1.12
relative viability ([1]; 8 µM): 0.89
relative viability ([2]; 0.5 µM): 1
relative viability ([2]; 1.581 µM): 0.847
relative viability ([2]; 5 µM): 0.908
relative viability ([2]; 15.81 µM): 0.616
relative viability ([2]; 50 µM): 0.573

NCI-H1915
relative viability ([1]; 0.08 µM): 0.975
relative viability ([1]; 0.253 µM): 1
relative viability ([1]; 0.8 µM): 1.01
relative viability ([1]; 2.53 µM): 1.03
relative viability ([1]; 8 µM): 0.883
relative viability ([2]; 0.5 µM): 1.02
relative viability ([2]; 1.581 µM): 0.738
relative viability ([2]; 5 µM): 1.05
relative viability ([2]; 15.81 µM): 0.972
relative viability ([2]; 50 µM): 0.633

NCI-H1650
relative viability ([1]; 0.08 µM): 0.974
relative viability ([1]; 0.253 µM): 0.874
relative viability ([1]; 0.8 µM): 0.946
relative viability ([1]; 2.53 µM): 0.889
relative viability ([1]; 8 µM): 0.297
relative viability ([2]; 0.5 µM): 1.12
relative viability ([2]; 5 µM): 1.03
relative viability ([2]; 15.81 µM): 0.419
relative viability ([2]; 50 µM): 0.223

HCC-44
relative viability ([1]; 0.08 µM): 1.02
relative viability ([1]; 0.253 µM): 0.948
relative viability ([1]; 2.53 µM): 1.02
relative viability ([1]; 8 µM): 0.812
relative viability ([2]; 0.5 µM): 0.999
relative viability ([2]; 1.581 µM): 0.507
relative viability ([2]; 5 µM): 0.993
relative viability ([2]; 15.81 µM): 0.877
relative viability ([2]; 50 µM): 0.695

NCI-H2170
relative viability ([1]; 0.08 µM): 1.03
relative viability ([1]; 0.253 µM): 1.09
relative viability ([1]; 0.8 µM): 1.01
relative viability ([1]; 2.53 µM): 1.12
relative viability ([1]; 8 µM): 0.993
relative viability ([2]; 0.5 µM): 0.986
relative viability ([2]; 1.581 µM): 0.942
relative viability ([2]; 5 µM): 0.992
relative viability ([2]; 15.81 µM): 0.853
relative viability ([2]; 50 µM): 0.606

NCI-H1975
relative viability ([1]; 0.08 µM): 0.989
relative viability ([1]; 0.253 µM): 0.92
relative viability ([1]; 0.8 µM): 0.98
relative viability ([1]; 2.53 µM): 0.962
relative viability ([1]; 8 µM): 0.638
relative viability ([2]; 0.5 µM): 1.02
relative viability ([2]; 1.581 µM): 0.904
relative viability ([2]; 5 µM): 1
relative viability ([2]; 15.81 µM): 0.996
relative viability ([2]; 50 µM): 0.768

HCC-827
relative viability ([1]; 0.08 µM): 1.03
relative viability ([1]; 0.253 µM): 1.04
relative viability ([1]; 0.8 µM): 1.01
relative viability ([1]; 2.53 µM): 1.08
relative viability ([1]; 8 µM): 1.04
relative viability ([2]; 0.5 µM): 1.02
relative viability ([2]; 1.581 µM): 0.923
relative viability ([2]; 5 µM): 1.07
relative viability ([2]; 50 µM): 0.922
